“Also recorded” adds a separate entry of the source. Where two headings read alike, the source gives them in different places.
How the values were obtained:
PC/RS cortical neurons = experiment: protection by anti-psychotic drugs against MK-801 (NRH)-induced vacuoles in rats; assay type: in vivo; conditions: Rattus norvegicus, Cortical neurone, ip
Experimental: Control animals received saline or DMSO, but no anti-psychotic drugs. Test animals were injected ip with an antipsychotic drug, listed above and in Table 2. Vacuoles were counted and data were processed as described in Example 1.

sigma receptors = conditions: sigma and dopamine receptors; cited from earlier work
[1] = tested on: KA and/or QUIS/AMPA classes of EAA receptors; experiment: blocking of MK-801 neurotoxic side effects by non-NMDA antagonist drugs in vivo; conditions: adult rats
Text: In addition to the foregoing classes of drugs, the Applicants have also recently discovered that non-NMDA antagonist drugs which can penetrate the BBB and block the KA and/or QUIS/AMPA classes of EAA receptors.

[2] = tested on: neurotoxic side effects caused by NMDA antagonists such as PCP or MK-801; conditions: Olney et al 1991, U.S. Pat. No. 5,034,400; cited from earlier work
[3] = tested on: pyramidal neurons in layers III and IV of the posterior cingulate (PC) and retrosplenial (RS) cortices; experiment: protection by alpha-2 adrenergic agonists against MK-801 neurotoxicity (vacuolated PC/RS neurons) in rats; conditions: for ED50: Rattus norvegicus, Pyramidal neuron, ip; for relative potency in preventing the neurotoxic reaction: ranking in words among the four α2 agonists
Text: For each test agent, at least 17 rats were used and at least four doses tested.
The rats were sacrificed four hours after treatment, and brain tissue from the PC/RS region was histopathologically evaluated by previously described methods using double-blinded techniques (Olney et al 1991). The number of vacuolated PC and RS neurons were counted on each side of the brain at a rostrocaudal level immediately posterior to where the corpus callosum ceases decussating across the midline (approximately 5.6 mm caudal to Bregma; Paxinos & Watson, The Rat Brain in Stereotaxic Coordinates, 2d Ed., 1986).

chick embryo retina = experiment: NMDA excitotoxicity in chick embryo retina segments, protection by MK-801 with or without alpha-2 agonist; assay type: cell-based; conditions: MK-801 500 nM; for cytopathology in retina incubated in NMDA plus MK-801, without or with α2 agonist: NMDA 40 μM, α2 agonist 500 nM to 100 μM, n=6 per condition
Experimental: These experiments were performed using segments of chick embryo retina. This is a widely used model for studying the production and prevention of excitotoxic phenomena, since it is simple and inexpensive. Chick tissue is used, since it tends to provide a better model of adult mammalian tissue than embryonic or juvenile mammalian tissue. Unlike newborn mammals, which are usually blind at birth, baby chicks can see quite well as soon as they emerge from the shell, and the NMDA receptors in chick retinal tissue are fully mature and functional.
In these tests, NMDA was introduced into the incubation medium in a concentration (40 μM) sufficient to produce a fully developed excitotoxic lesion within 30 min, displaying acute degeneration and necrosis of the majority of neurons in the inner layers of the retina.

[4] = cited from earlier work
cerebral cortex = conditions: cited from earlier work
α2 receptors = conditions: in words; cited from earlier work
[5] = tested on: alpha-2 adrenergic receptor; conditions: for shift of clonidine blocking curve: preliminary, combined with clonidine (n=4), yohimbine 1 mg/kg ip or rauwolscine 5 mg/kg ip
Experimental: The brains were processed and the severity of damage assessed as described in Example 1. Results were analyzed by analysis of variance (ANOVA) where the dose of xylazine was the covariate and the presence of yohimbine served as the classification (treatment) variable. The homogeneity of slopes assumption was tested by determining whether there was a significant interaction between the covariate and the treatment variable.

[6] = compared to clonidine, cited from earlier work
[7] = tested on: people addicted to cigarettes or opiates; conditions: cited from earlier work

C[C@@H]1CN(CCCn2c3ccccc3c3ccccc32)C[C@H](C)N1 [Rimcazole]
ED50 (PC/RS cortical neurons): 17.8 mg/kg
receptor selectivity (sigma receptors): substantial affinity only for sigma receptors

NS(=O)(=O)c1cccc2c1c([N+](=O)[O-])cc1nc(O)c(O)nc12 [NBQX, 2,3-dihydroxy-6-nitro-7-sulfamoylbenzo(F)quinoxaline]
block of neurotoxic side effects of NMDA antagonist drugs such as MK-801 [1]: can also block the neurotoxic side effects of NMDA antagonist drugs such as MK-801

CN1[C@@H]2CC[C@H]1C[C@@H](OC(c1ccccc1)c1ccccc1)C2 [benztropine]
block of neurotoxic side effects caused by NMDA antagonists [2]: can block the neurotoxic side effects caused by NMDA antagonists

C[C@]12N[C@H](Cc3ccccc31)c1ccccc12 [MK-801, (+)-5-methyl-10,11-dihydro-5H-di[a,d]-cyclohepten-5,10-imine]
mean number of vacuolated neurons per section ([3]; MK-801 0.5 mg/kg sc plus vehicle, 4 h, SEM, n=26): 223±10.5 vacuolated neurons per section
neurotoxic reaction to MK-801 ([3]; all control animals, MK-801 0.5 mg/kg sc): All control animals developed a neurotoxic reaction
protection against excitotoxic damage (chick embryo retina; regardless of α2 agonist): completely protected against excitotoxic damage
cytopathology in retina incubated in NMDA plus MK-801, without or with α2 agonist (chick embryo retina): no cytopathology
duration of action ([4]; in words): measured in days

CCNC1(c2cccs2)CCCCC1=O (centres unmarked) [Tiletamine]
pathomorphological changes in brain (cerebral cortex; adult rat, literature): cause pathomorphological changes in the cerebral cortex of adult rats

Clc1ccc2c(c1)C(N1CCNCC1)=Nc1ccccc1O2 [Amoxapine]
ED50 (PC/RS cortical neurons): 75 mg/kg

OC(CCN1CCCCC1)(c1ccccc1)C1CCCCC1 (centres unmarked) [trihexyphenidyl]
block of neurotoxic side effects caused by NMDA antagonists [2]: can block the neurotoxic side effects caused by NMDA antagonists

Cc1cccc(C)c1N=C1NCCCS1 [Xylazine]
ED50 ([3]; 4 h): 2.4 mg/kg
relative potency in preventing the neurotoxic reaction [3]: the least potent
cytopathology in retina incubated in NMDA plus MK-801, without or with α2 agonist (chick embryo retina): no cytopathology
affinity/selectivity for α2 over α1 receptors (α2 receptors): activate α2 receptors with higher affinity than they have for α1 receptors

CCN1CCc2nc(N)oc2CC1 [azepexole]
affinity/selectivity for α2 over α1 receptors (α2 receptors): activate α2 receptors with higher affinity than they have for α1 receptors; also recorded: substantially more selectivity for α2 receptors than for α1 receptors, when compared to clonidine; also recorded: substantially higher selectivity for α2 receptors (and substantially lower affinity for α1 receptors) than clonidine

COC(=O)[C@@H]1[C@H]2C[C@H]3c4[nH]c5ccccc5c4CCN3C[C@@H]2CC[C@@H]1O [yohimbine]
shift of clonidine blocking curve [5]: A similar shifting of the curve to the right
effect on xylazine's protection ([5]; yohimbine 1 mg/kg ip with various doses of xylazine, MK-801-treated rats, F(1,42)=9.40, p=0.004): significantly interfered with xylazine's protection
shift of xylazine blocking curve ([5]; yohimbine 1 mg/kg ip, MK-801-treated rats, FIG. 2): shifted the blocking curve to the right

Cc1cc2c(s1)Nc1ccccc1N=C2N1CCN(C)CC1 [Olanzapine]
ED50 (PC/RS cortical neurons): 1.4 mg/kg

Clc1ccc2nsnc2c1NC1=NCCN1 [tizanidine]
affinity/selectivity for α2 over α1 receptors (α2 receptors): activate α2 receptors with higher affinity than they have for α1 receptors

N=C(N)N/N=C/c1c(Cl)cccc1Cl [Guanabenz]
ED50 ([3]; 4 h): 0.21 mg/kg
relative potency in preventing the neurotoxic reaction [3]: intermediate
affinity/selectivity for α2 over α1 receptors (α2 receptors): activate α2 receptors with higher affinity than they have for α1 receptors

Cc1cccc([C@H](C)c2cnc[nH]2)c1C [dexmedetomidine]
affinity/selectivity for α2 over α1 receptors (α2 receptors): activate α2 receptors with higher affinity than they have for α1 receptors; also recorded: substantially more selectivity for α2 receptors than for α1 receptors, when compared to clonidine; also recorded: substantially higher selectivity for α2 receptors (and substantially lower affinity for α1 receptors) than clonidine

C1COC(NC(C2CC2)C2CC2)=N1 [rilmenidine]
affinity/selectivity for α2 over α1 receptors (α2 receptors): activate α2 receptors with higher affinity than they have for α1 receptors

OC(CCN1CCCCC1)(c1ccccc1)C1CC2C=CC1C2 (centres unmarked) [biperiden]
block of neurotoxic side effects caused by NMDA antagonists [2]: can block the neurotoxic side effects caused by NMDA antagonists

CN1CCN(C2=Nc3cc(Cl)ccc3Nc3ccccc32)CC1 [Clozapine]
ED50 (PC/RS cortical neurons; protection against MK-801-induced vacuoles, confidence limits 25th & 75th percentiles in separate column, read-out: ED50): 3.2 mg/kg

CNC1(c2ccccc2Cl)CCCCC1=O (centres unmarked) [Ketamine]
pathomorphological changes in brain (cerebral cortex; rat, in vivo): cause pathomorphological changes in the cerebral cortex of adult rats
duration of action ([4]; ketamine, human anesthesia): about 15 minutes

C=CCC1(C(C)CCC)C(=O)NC(=O)NC1=O (centres unmarked) [secobarbitol]
block of neurotoxic side effects caused by NMDA antagonists [2]: can block the neurotoxic side effects caused by NMDA antagonists

CC(Oc1c(Cl)cccc1Cl)C1=NCCN1 (centres unmarked) [lofexidine]
affinity/selectivity for α2 over α1 receptors (α2 receptors): activate α2 receptors with higher affinity than they have for α1 receptors
hypotensive side effects [6]: substantially lower hypotensive side effects than clonidine; also recorded: substantially lower activity in reducing blood pressure than clonidine
hypotensive side effects ([6]; listed as Lofexidine): reduced hypotensive side effects compared to clonidine
reduction of withdrawal symptoms [7]: help reduce withdrawal symptoms in some recovering addicts

CSc1ccc2c(c1)N(CCC1CCCCN1C)c1ccccc1S2 (centres unmarked) [Thioridazine]
ED50 (PC/RS cortical neurons): 55.3 mg/kg
receptor selectivity (sigma receptors): interact with both dopamine receptors and sigma receptors

Clc1cccc(Cl)c1N=C1NCCN1 [Clonidine]
ED50 ([3]; 4 h): 0.044 mg/kg
relative potency in preventing the neurotoxic reaction [3]: the most potent
cytopathology in retina incubated in NMDA plus MK-801, without or with α2 agonist (chick embryo retina): no cytopathology
affinity/selectivity for α2 over α1 receptors (α2 receptors): activate α2 receptors with higher affinity than they have for α1 receptors
reduction of withdrawal symptoms [7]: help reduce withdrawal symptoms in some recovering addicts

N=C(N)NC(=O)Cc1c(Cl)cccc1Cl [guanfacine]
affinity/selectivity for α2 over α1 receptors (α2 receptors): activate α2 receptors with higher affinity than they have for α1 receptors; also recorded: substantially higher selectivity for α2 receptors (and substantially lower affinity for α1 receptors) than clonidine
hypotensive side effects [6]: substantially lower activity in reducing blood pressure than clonidine

C[C@](N)(Cc1ccc(O)c(O)c1)C(=O)O [alpha-methyldopa]
affinity/selectivity for α2 over α1 receptors (α2 receptors): activate α2 receptors with higher affinity than they have for α1 receptors

Cc1ccccc1NC(=N)Nc1ccccc1C [Di(2-tolyl)guanidine, di(2-tolyl)guanidine]
ED50 (PC/RS cortical neurons): 22.2 mg/kg

Cc1cccc(C(C)c2cnc[nH]2)c1C (centres unmarked) [medetomidine]
affinity/selectivity for α2 over α1 receptors (α2 receptors): activate α2 receptors with higher affinity than they have for α1 receptors

O=C(CCCN1CCC(O)(c2ccc(Cl)cc2)CC1)c1ccc(F)cc1 [Haloperidol]
ED50 (PC/RS cortical neurons): 5.1 mg/kg
receptor selectivity (sigma receptors): interact with both dopamine receptors and sigma receptors

CN1CCN(C2=Nc3cc(F)ccc3Cc3ccccc32)CC1 [Fluperlapine]
ED50 (PC/RS cortical neurons): 2.3 mg/kg

CN1CCN(C2=Nc3ccccc3Oc3ccc(Cl)cc32)CC1 [Loxapine]
ED50 (PC/RS cortical neurons): 23.6 mg/kg
receptor selectivity (sigma receptors): interact with both dopamine receptors and sigma receptors

COC(=O)[C@H]1[C@H]2C[C@H]3c4[nH]c5ccccc5c4CCN3C[C@H]2CC[C@@H]1O [rauwolscine]
shift of clonidine blocking curve [5]: A similar shifting of the curve to the right

OC(CCN1CCCC1)(c1ccccc1)C1CCCCC1 (centres unmarked) [procyclidine]
block of neurotoxic side effects caused by NMDA antagonists [2]: can block the neurotoxic side effects caused by NMDA antagonists

CC(N)C(O)c1ccc(O)c(O)c1 (stereo not drawn) [alpha-methylnoradrenaline]
affinity/selectivity for α2 over α1 receptors (α2 receptors): activate α2 receptors with higher affinity than they have for α1 receptors

Clc1cc(I)cc(Cl)c1NC1=NCCN1 [p-Iodoclonidine]
ED50 ([3]; 4 h): 1.3 mg/kg
relative potency in preventing the neurotoxic reaction [3]: intermediate
affinity/selectivity for α2 over α1 receptors (α2 receptors): activate α2 receptors with higher affinity than they have for α1 receptors
